#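 Method: 48-hour compound exposure of cells in 96-well plates, five concentrations, linear interpolation of endpoints. GI50 is the concentration that inhibits growth by half. TGI is the concentration that stops growth completely.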
# What was measured:
# Assay in all cases: growth of human tumour cells (NCI), 48 h
# IGROV1 ovarian = tested on: IGROV1 ovarian
# NCI-H460 lung = tested on: NCI-H460 lung
# NCI-H23 lung = tested on: NCI-H23 lung
# HCT-15 colon = tested on: HCT-15 colon
# SW-620 colon = tested on: SW-620 colon
# UO-31 renal = tested on: UO-31 renal
# SNB-75 CNS = tested on: SNB-75 CNS
# MDA-MB-435 = tested on: MDA-MB-435
# MDA-MB-468 breast = tested on: MDA-MB-468 breast
# LOX IMVI melanoma = tested on: LOX IMVI melanoma
# OVCAR-8 ovarian = tested on: OVCAR-8 ovarian
# U251 CNS = tested on: U251 CNS
# SK-MEL-2 melanoma = tested on: SK-MEL-2 melanoma
# HT29 colon = tested on: HT29 colon
# SK-MEL-28 melanoma = tested on: SK-MEL-28 melanoma
# 786-0 renal = tested on: 786-0 renal
# SF-539 CNS = tested on: SF-539 CNS
# CAKI-1 renal = tested on: CAKI-1 renal
# DU-145 prostate = tested on: DU-145 prostate
# MCF7 breast = tested on: MCF7 breast
# HCT-116 colon = tested on: HCT-116 colon
# MOLT-4 leukemia = tested on: MOLT-4 leukemia
# UACC-62 melanoma = tested on: UACC-62 melanoma
# SR leukemia = tested on: SR leukemia
# RXF 393 renal = tested on: RXF 393 renal
# HL-60(TB) leukemia = tested on: HL-60(TB) leukemia
# A549 NSCLC = tested on: A549 NSCLC
# HOP-92 NSCLC = tested on: HOP-92 NSCLC
# RPMI-8226 leukemia = tested on: RPMI-8226 leukemia
# CCRF-CEM leukemia = tested on: CCRF-CEM leukemia
# NCI-H226 lung = tested on: NCI-H226 lung
# SF-295 CNS = tested on: SF-295 CNS
# PC-3 prostate = tested on: PC-3 prostate
# K-562 leukemia = tested on: K-562 leukemia
# SNB-19 CNS = tested on: SNB-19 CNS
# SK-MEL-5 melanoma = tested on: SK-MEL-5 melanoma
# M14 melanoma = tested on: M14 melanoma
# OVCAR-4 ovarian = tested on: OVCAR-4 ovarian
# HS 578T breast = tested on: HS 578T breast
# SF-268 CNS = tested on: SF-268 CNS
# T-47D breast = tested on: T-47D breast
# MDA-MB-231 breast = tested on: MDA-MB-231 breast
# OVCAR-3 ovarian = tested on: OVCAR-3 ovarian
# OVCAR-5 ovarian = tested on: OVCAR-5 ovarian
# EKVX NSCLC = tested on: EKVX NSCLC
# SK-OV-3 ovarian = tested on: SK-OV-3 ovarian
# HCC-2998 colon = tested on: HCC-2998 colon
# MALME-3M melanoma = tested on: MALME-3M melanoma
# BT-549 breast = tested on: BT-549 breast
# UACC-257 melanoma = tested on: UACC-257 melanoma
# ACHN renal = tested on: ACHN renal
# KM12 colon = tested on: KM12 colon
# SN12C renal = tested on: SN12C renal
# COLO 205 colon = tested on: COLO 205 colon
# A498 renal = tested on: A498 renal
# TK-10 renal = tested on: TK-10 renal
# HOP-62 NSCLC = tested on: HOP-62 NSCLC
# NCI-H522 lung = tested on: NCI-H522 lung
smiles,measurement,setting,value
Cc1ccc(C(=O)Nc2cc(-n3ccnc3C)cc(C(F)(F)F)c2)cc1C#Cc1cnc2cccnn12,GI50,IGROV1 ovarian,2.62 µM
same,TGI,IGROV1 ovarian,23.2 µM
same,GI50,NCI-H460 lung,3.68 µM
same,TGI,NCI-H460 lung,10.8 µM
same,GI50,NCI-H23 lung,1.53 µM
same,TGI,NCI-H23 lung,12.2 µM
same,GI50,HCT-15 colon,2.44 µM
same,TGI,HCT-15 colon,> 29.3 µM
same,GI50,SW-620 colon,2.43 µM
same,TGI,SW-620 colon,> 29.3 µM
same,GI50,UO-31 renal,1.13 µM
same,TGI,UO-31 renal,6.17 µM
same,GI50,SNB-75 CNS,2.98 µM
same,TGI,SNB-75 CNS,8.74 µM
same,GI50,MDA-MB-435,3.07 µM
same,TGI,MDA-MB-435,14.7 µM
same,GI50,MDA-MB-468 breast,6.89 µM
same,TGI,MDA-MB-468 breast,19.7 µM
same,GI50,LOX IMVI melanoma,0.702 µM
same,TGI,LOX IMVI melanoma,4.35 µM
same,GI50,OVCAR-8 ovarian,3.49 µM
same,TGI,OVCAR-8 ovarian,11.1 µM
same,GI50,U251 CNS,4.23 µM
same,TGI,U251 CNS,13.4 µM
same,GI50,SK-MEL-2 melanoma,0.84 µM
same,TGI,SK-MEL-2 melanoma,4.62 µM
same,GI50,HT29 colon,0.848 µM
same,TGI,HT29 colon,4.94 µM
same,GI50,SK-MEL-28 melanoma,0.898 µM
same,TGI,SK-MEL-28 melanoma,4.47 µM
same,GI50,786-0 renal,4.02 µM
same,TGI,786-0 renal,11.9 µM
same,GI50,SF-539 CNS,0.916 µM
same,TGI,SF-539 CNS,4 µM
same,GI50,CAKI-1 renal,1.76 µM
same,TGI,CAKI-1 renal,6.52 µM
same,GI50,DU-145 prostate,5.23 µM
same,TGI,DU-145 prostate,23.1 µM
same,GI50,MCF7 breast,5.06 µM
same,TGI,MCF7 breast,> 29.3 µM
same,GI50,HCT-116 colon,1.31 µM
same,TGI,HCT-116 colon,8.25 µM
same,GI50,MOLT-4 leukemia,2.42 µM
same,TGI,MOLT-4 leukemia,> 29.3 µM
same,GI50,UACC-62 melanoma,0.756 µM
same,TGI,UACC-62 melanoma,4.13 µM
same,GI50,SR leukemia,2.44 µM
same,TGI,SR leukemia,> 29.3 µM
same,GI50,RXF 393 renal,1.64 µM
same,TGI,RXF 393 renal,6.11 µM
same,GI50,HL-60(TB) leukemia,0.257 µM
same,TGI,HL-60(TB) leukemia,> 29.3 µM
same,GI50,A549 NSCLC,3.01 µM
same,TGI,A549 NSCLC,13.5 µM
same,GI50,HOP-92 NSCLC,0.918 µM
same,TGI,HOP-92 NSCLC,4.61 µM
same,GI50,RPMI-8226 leukemia,1.27 µM
same,TGI,RPMI-8226 leukemia,15 µM
same,GI50,CCRF-CEM leukemia,3.45 µM
same,TGI,CCRF-CEM leukemia,> 29.3 µM
same,GI50,NCI-H226 lung,1.23 µM
same,TGI,NCI-H226 lung,6.47 µM
same,GI50,SF-295 CNS,3.13 µM
same,TGI,SF-295 CNS,8.7 µM
same,GI50,PC-3 prostate,4.51 µM
same,TGI,PC-3 prostate,15.3 µM
same,GI50,K-562 leukemia,0.00293 µM
same,TGI,K-562 leukemia,> 29.3 µM
same,GI50,SNB-19 CNS,6.09 µM
same,TGI,SNB-19 CNS,19.1 µM
same,GI50,SK-MEL-5 melanoma,3.33 µM
same,TGI,SK-MEL-5 melanoma,8.81 µM
same,GI50,M14 melanoma,0.924 µM
same,TGI,M14 melanoma,24.4 µM
same,GI50,OVCAR-4 ovarian,4.51 µM
same,TGI,OVCAR-4 ovarian,16.3 µM
same,GI50,HS 578T breast,1.12 µM
same,TGI,HS 578T breast,7.31 µM
same,GI50,SF-268 CNS,4 µM
same,TGI,SF-268 CNS,16.4 µM
same,GI50,T-47D breast,4.24 µM
same,TGI,T-47D breast,12.6 µM
same,GI50,MDA-MB-231 breast,0.364 µM
same,TGI,MDA-MB-231 breast,3.2 µM
same,GI50,OVCAR-3 ovarian,9.25 µM
same,TGI,OVCAR-3 ovarian,29.1 µM
same,GI50,OVCAR-5 ovarian,1.27 µM
same,TGI,OVCAR-5 ovarian,8.91 µM
same,GI50,EKVX NSCLC,6.85 µM
same,TGI,EKVX NSCLC,> 29.3 µM
same,GI50,SK-OV-3 ovarian,5.64 µM
same,TGI,SK-OV-3 ovarian,14.9 µM
same,GI50,HCC-2998 colon,2.55 µM
same,TGI,HCC-2998 colon,11 µM
same,GI50,MALME-3M melanoma,0.25 µM
same,TGI,MALME-3M melanoma,1.73 µM
same,GI50,BT-549 breast,3.4 µM
same,TGI,BT-549 breast,8.39 µM
same,GI50,UACC-257 melanoma,1.78 µM
same,TGI,UACC-257 melanoma,8.74 µM
same,GI50,ACHN renal,2.49 µM
same,TGI,ACHN renal,6.69 µM
same,GI50,KM12 colon,0.131 µM
same,TGI,KM12 colon,24.6 µM
same,GI50,SN12C renal,0.948 µM
same,TGI,SN12C renal,5.97 µM
same,GI50,COLO 205 colon,1.7 µM
same,TGI,COLO 205 colon,15.6 µM
same,GI50,A498 renal,3.26 µM
same,TGI,A498 renal,9.74 µM
same,GI50,TK-10 renal,4.27 µM
same,TGI,TK-10 renal,14 µM
same,GI50,HOP-62 NSCLC,1.88 µM
same,TGI,HOP-62 NSCLC,9.67 µM
same,GI50,NCI-H522 lung,2.74 µM
same,TGI,NCI-H522 lung,9.44 µM

# Source: PubChem BioAssay (NCI)
